Experimental data: patent US9850283B2, “Macrocyclic inhibitors of the PD-1/PD-L1 and CD80(B7-1)/PD-L1 protein/protein interactions” (BRISTOL-MYERS SQUIBB COMPANY, priority 2013, dated 2017)
pIC50: −log10 of the molar value. Positions of bridges follow the written chain, without caps; N, C: chain ends. Non-standard residues stand in square brackets, D forms with d. Residues, ends and D or L forms follow the SMILES beside them. ξ: configuration not given here. Bta = N[C@@H](Cc1csc2ccccc12)C(=O)O; Hyp = O=C(O)[C@@H]1C[C@@H](O)CN1; NMeNle = CCCC[C@H](NC)C(=O)O; NMeA = CN[C@@H](C)C(=O)O; ξC = NC(CS)C(=O)O

Assays:
Human PD-L1/PD-1 = target: T1, Human PD-L1/PD-1 (Homo sapiens, UniProt Q9NZQ7); assay: HTRF PD-1-Ig/PD-L1-His binding assay (human PD-L1); settings: cluster symbol; read-out: HTRF IC50 cluster
T1 construct: made in house; host or cells: HEK293T
T1 sequence (Q9NZQ7 with tags, fused parts or gaps): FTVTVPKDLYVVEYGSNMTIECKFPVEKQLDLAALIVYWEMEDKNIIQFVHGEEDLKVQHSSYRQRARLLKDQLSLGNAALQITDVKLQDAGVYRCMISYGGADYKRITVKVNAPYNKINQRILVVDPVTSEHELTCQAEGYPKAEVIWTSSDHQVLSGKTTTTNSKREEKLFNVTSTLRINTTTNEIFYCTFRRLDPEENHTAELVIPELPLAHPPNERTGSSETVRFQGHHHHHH
Procedure, shortened: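 Soluble Fc-fused PD-1 and His-tagged PD-L1 (truncated before the transmembrane region) were combined in dPBS with 0.1% (w/v) BSA and 0.05% (v/v) Tween-20. Binding was read by HTRF using europium cryptate anti-Ig antibody (1 nM final) and APC anti-His antibody (20 nM final).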

[1] = target: T2, LK35.2-hPD-L1 cells / PE-labeled PD-1-Ig (Homo sapiens, UniProt Q9NZQ7); assay: LK35.2-hPD-L1 cell binding high-content screening assay; format: cell-based; settings: cell binding assay, cell line not given; cluster symbol; read-out: CBA IC50 cluster
T2 construct: expressed in transfected cells; host or cells: LK35.2 mouse B cell line
T2 sequence (Q9NZQ7 19-290): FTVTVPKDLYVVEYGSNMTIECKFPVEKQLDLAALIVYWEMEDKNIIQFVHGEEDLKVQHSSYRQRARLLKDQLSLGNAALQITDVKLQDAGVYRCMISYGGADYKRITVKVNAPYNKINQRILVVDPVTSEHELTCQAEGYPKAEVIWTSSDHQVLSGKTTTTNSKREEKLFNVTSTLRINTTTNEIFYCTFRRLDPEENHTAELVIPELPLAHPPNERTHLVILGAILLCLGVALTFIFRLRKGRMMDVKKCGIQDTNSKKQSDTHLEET
Procedure, shortened: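 Mouse LK35.2 B cells stably over-expressing human PD-L1, cultured overnight, treated with compound plus PE-labeled human PD-1-Ig (1 nM final) in RPMI/10% FCS for 1 h at 37 °C. After washing, bound fluorescence quantified by high-content imaging.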

SMILES | pIC50 (Human PD-L1/PD-1) | pIC50 [1]
CCCC[C@H]1C(=O)N(C)[C@@H](CCCC)C(=O)N[C@@H](CCCNC(=N)N)C(=O)NC(C(=O)NCC(N)=O)CSCC(=O)N[C@@H](Cc2ccc(O)cc2)C(=O)N(C)[C@@H](C)C(=O)N[C@@H](CC(N)=O)C(=O)N2CCC[C@H]2C(=O)N[C@@H](Cc2cnc[nH]2)C(=O)N[C@@H](CO)C(=O)N2C[C@H](O)C[C@H]2C(=O)N[C@@H](Cc2c[nH]c3ccccc23)C(=O)N[C@@H](CO)C(=O)N[C@@H](Cc2csc3ccccc23)C(=O)N1C (stereo partly shown) [Example 9070] ({CH2CO}-Y[NMeA]NPHS[Hyp]WS[Bta][NMeNle][NMeNle]R[ξC]G-NH2; thioether N-14) | 7.52 to 8.17 | 8.33 to 9.80
CCCC[C@H]1C(=O)N(C)[C@@H](CCCC)C(=O)N[C@@H](CCCNC(=N)N)C(=O)NC(C(=O)NCC(N)=O)CSCC(=O)N[C@@H](Cc2ccc(O)cc2)C(=O)N(C)[C@@H](C)C(=O)N[C@@H](CC(N)=O)C(=O)N2CCC[C@H]2C(=O)N[C@@H](CO)C(=O)N[C@@H](CC(C)C)C(=O)N2C[C@H](O)C[C@H]2C(=O)N[C@@H](Cc2c[nH]c3ccccc23)C(=O)N[C@@H](CO)C(=O)N[C@@H](Cc2csc3ccccc23)C(=O)N1C (stereo partly shown) [Example 9071] ({CH2CO}-Y[NMeA]NPSL[Hyp]WS[Bta][NMeNle][NMeNle]R[ξC]G-NH2; thioether N-14) | 8.17 to 9.41 | 8.33 to 9.80
CCCC[C@H]1C(=O)N(C)[C@@H](CCCC)C(=O)N[C@@H](CCCNC(=N)N)C(=O)NC(C(=O)NCC(N)=O)CSCC(=O)N[C@@H](Cc2ccc(O)cc2)C(=O)N(C)[C@@H](C)C(=O)N[C@@H](CC(N)=O)C(=O)N2CCC[C@H]2C(=O)N[C@@H](CO)C(=O)N[C@@H](CC(C)C)C(=O)N2CCC[C@H]2C(=O)N[C@@H](Cc2c[nH]c3ccccc23)C(=O)N[C@@H](CO)C(=O)N[C@@H](Cc2csc3ccccc23)C(=O)N1C (stereo partly shown) [Example 9072] ({CH2CO}-Y[NMeA]NPSLPWS[Bta][NMeNle][NMeNle]R[ξC]G-NH2; thioether N-14) | 8.17 to 9.41 | 8.33 to 9.80
CCCC[C@H]1C(=O)N(C)[C@@H](CCCC)C(=O)N[C@@H](CCCNC(=N)N)C(=O)NC(C(=O)NCC(N)=O)CSCC(=O)N[C@@H](Cc2ccc(O)cc2)C(=O)N(C)[C@@H](C)C(=O)N[C@@H](CC(N)=O)C(=O)N2CCC[C@H]2C(=O)N[C@@H](CO)C(=O)N[C@@H](CC(C)C)C(=O)N2CCC[C@H]2C(=O)N[C@@H](Cc2c[nH]c3ccccc23)C(=O)N[C@@H](CO)C(=O)N[C@@H](Cc2c[nH]c3ccccc23)C(=O)N1C (stereo partly shown) [Example 9073] ({CH2CO}-Y[NMeA]NPSLPWSW[NMeNle][NMeNle]R[ξC]G-NH2; thioether N-14) | 8.17 to 9.41 | 8.33 to 9.80
CCCC[C@H]1C(=O)N(C)[C@@H](CCCC)C(=O)N[C@@H](CCCNC(=N)N)C(=O)NC(C(=O)NCC(N)=O)CSCC(=O)N[C@@H](Cc2ccc(O)cc2)C(=O)N(C)[C@@H](C)C(=O)N[C@@H](CC(N)=O)C(=O)N2CCC[C@H]2C(=O)N[C@@H](CO)C(=O)N[C@@H](CC(C)C)C(=O)N2C[C@H](O)C[C@H]2C(=O)N[C@@H](Cc2c[nH]c3ccccc23)C(=O)N[C@@H](CO)C(=O)N[C@@H](Cc2c[nH]c3ccccc23)C(=O)N1C (stereo partly shown) [Example 9074] ({CH2CO}-Y[NMeA]NPSL[Hyp]WSW[NMeNle][NMeNle]R[ξC]G-NH2; thioether N-14) | 8.17 to 9.41 | 8.33 to 9.80

More lines, now with the values ahead:

pIC50 (Human PD-L1/PD-1) | pIC50 [1] | SMILES
8.17 to 9.41 | 8.33 to 9.80 | CCCC[C@H]1C(=O)N(C)[C@@H](CCCC)C(=O)N[C@@H](CCCNC(=N)N)C(=O)NC(C(=O)N[C@@H](CO)C(N)=O)CSCC(=O)N[C@@H](Cc2ccc(O)cc2)C(=O)N(C)[C@@H](C)C(=O)N[C@@H](CC(N)=O)C(=O)N2CCC[C@H]2C(=O)N[C@@H](CO)C(=O)N[C@@H](CC(C)C)C(=O)N2C[C@H](O)C[C@H]2C(=O)N[C@@H](Cc2c[nH]c3ccccc23)C(=O)N[C@@H](CO)C(=O)N[C@@H](Cc2csc3ccccc23)C(=O)N1C (stereo partly shown) [Example 9075] ({CH2CO}-Y[NMeA]NPSL[Hyp]WS[Bta][NMeNle][NMeNle]R[ξC]S-NH2; thioether N-14)
8.17 to 9.41 | 7.14 to 8.32 | CCCC[C@H]1C(=O)N(C)[C@@H](CCCC)C(=O)N[C@@H](CCCNC(=N)N)C(=O)NC(C(=O)N[C@@H](CO)C(N)=O)CSCC(=O)N[C@@H](Cc2ccc(O)cc2)C(=O)N(C)[C@@H](C)C(=O)N[C@@H](CC(N)=O)C(=O)N2CCC[C@H]2C(=O)N[C@@H](Cc2cnc[nH]2)C(=O)N[C@@H](CO)C(=O)N2CCC[C@H]2C(=O)N[C@@H](Cc2c[nH]c3ccccc23)C(=O)N[C@@H](CO)C(=O)N[C@@H](Cc2csc3ccccc23)C(=O)N1C (stereo partly shown) [Example 9076] ({CH2CO}-Y[NMeA]NPHSPWS[Bta][NMeNle][NMeNle]R[ξC]S-NH2; thioether N-14)
7.52 to 8.17 | 7.14 to 8.32 | CCCC[C@H]1C(=O)N(C)[C@@H](CCCC)C(=O)N[C@@H](CCCNC(=N)N)C(=O)NC(C(=O)N[C@@H](CO)C(N)=O)CSCC(=O)N[C@@H](Cc2ccc(O)cc2)C(=O)N(C)[C@@H](C)C(=O)N[C@@H](CC(N)=O)C(=O)N2CCC[C@H]2C(=O)N[C@@H](Cc2cnc[nH]2)C(=O)N[C@@H](CO)C(=O)N2CCC[C@H]2C(=O)N[C@@H](Cc2c[nH]c3ccccc23)C(=O)N[C@@H](CO)C(=O)N[C@@H](Cc2c[nH]c3ccccc23)C(=O)N1C (stereo partly shown) [Example 9077] ({CH2CO}-Y[NMeA]NPHSPWSW[NMeNle][NMeNle]R[ξC]S-NH2; thioether N-14)
7.52 to 8.17 | 8.33 to 9.80 | CCCC[C@H]1C(=O)N(C)[C@@H](CCCC)C(=O)N[C@@H](CCCNC(=N)N)C(=O)NC(C(=O)N[C@@H](CO)C(N)=O)CSCC(=O)N[C@@H](Cc2ccc(O)cc2)C(=O)N(C)[C@@H](C)C(=O)N[C@@H](CC(N)=O)C(=O)N2CCC[C@H]2C(=O)N[C@@H](Cc2cnc[nH]2)C(=O)N[C@@H](CO)C(=O)N2C[C@H](O)C[C@H]2C(=O)N[C@@H](Cc2c[nH]c3ccccc23)C(=O)N[C@@H](CO)C(=O)N[C@@H](Cc2csc3ccccc23)C(=O)N1C (stereo partly shown) [Example 9078] ({CH2CO}-Y[NMeA]NPHS[Hyp]WS[Bta][NMeNle][NMeNle]R[ξC]S-NH2; thioether N-14)
8.17 to 9.41 | 7.14 to 8.32 | CCCC[C@H]1C(=O)N(C)[C@@H](CCCC)C(=O)N[C@@H](CCCNC(=N)N)C(=O)NC(C(=O)N[C@@H](CO)C(N)=O)CSCC(=O)N[C@@H](Cc2ccc(O)cc2)C(=O)N(C)[C@@H](C)C(=O)N[C@@H](CC(N)=O)C(=O)N2CCC[C@H]2C(=O)N[C@@H](Cc2cnc[nH]2)C(=O)N[C@@H](CO)C(=O)N2C[C@H](O)C[C@H]2C(=O)N[C@@H](Cc2c[nH]c3ccccc23)C(=O)N[C@@H](CO)C(=O)N[C@@H](Cc2c[nH]c3ccccc23)C(=O)N1C (stereo partly shown) [Example 9079] ({CH2CO}-Y[NMeA]NPHS[Hyp]WSW[NMeNle][NMeNle]R[ξC]S-NH2; thioether N-14)
8.17 to 9.41 | 8.33 to 9.80 | CCCC[C@H]1C(=O)N(C)[C@@H](CCCC)C(=O)N[C@@H](CCCNC(=N)N)C(=O)NC(C(=O)N[C@@H](CO)C(N)=O)CSCC(=O)N[C@@H](Cc2ccc(O)cc2)C(=O)N(C)[C@@H](C)C(=O)N[C@@H](CC(N)=O)C(=O)N2CCC[C@H]2C(=O)N[C@@H](CO)C(=O)N[C@@H](CC(C)C)C(=O)N2C[C@H](O)C[C@H]2C(=O)N[C@@H](Cc2c[nH]c3ccccc23)C(=O)N[C@@H](CO)C(=O)N[C@@H](Cc2c[nH]c3ccccc23)C(=O)N1C (stereo partly shown) [Example 9080] ({CH2CO}-Y[NMeA]NPSL[Hyp]WSW[NMeNle][NMeNle]R[ξC]S-NH2; thioether N-14)
